By MIC is commonly meant the least concentration at which growth counts as inhibited. Usually MIC50 stands for an inhibitory concentration at the 50% level, which refers to growth in some studies and to a panel of isolates in others. Low readings indicate higher susceptibility, high ones lower susceptibility.

One experiment has as its system E. coli TOP10. The format is cell-based. As for the experimental part: (§1) Bacterial cells were grown in cation-adjusted Mueller Hinton Broth (MHB II) overnight to stationary phase. The cultures were then supplemented with 200 g l^−1 glycerol, aliquoted, and frozen at −80°C. […] The purified peptides were thawed and the concentration was determined by RP-HPLC as described before. The peptides were diluted with sterile water to 4-fold the desired assays starting concentration and to a final volume of 50 μl. […] The first well of each MIC dilution series was filled with 20 μl of 2-fold concentrated MHB II, wells 2–11 with 20 μl of MHB II, and well 12 with 40 μl MHB II (sterility control). Next, 20 μl of the peptide dilution was added to the first well, mixed, and a log2-serial dilution was performed from wells 1 to 10 (20 μl transfer volume). Well 11 served as growth control (i.e., no peptide added). In the last step, 20 μl of the bacterial cell suspension was added to wells 1–11 either using the pipetting robot (E. coli TOP10, BW25113, BW25113 ΔsbmA, and ATCC 25922) or by manual pipetting (E. coli clinical isolates). The plates were sealed airtight and incubated for 18 h without shaking at 37°C before reading the OD using an Infinite 200 PRO plate reader (Tecan, Männedorf, CH). The MIC value corresponded to the concentration at which no growth of the bacterial strain was observed (< 5% of the OD value of the growth control) and was evaluated using a custom-written script in the programming language R. MIC values of E. coli TOP10, BW25113, BW25113 ΔsbmA, and ATCC 25922 were determined at least in biological triplicates. All MIC experiments were determined in technical replicate.

A further experiment has as its system E. coli BW25113. The format is cell-based. Conditions: E. coli BW25113 parental strain; MHB II; 18 h, 37°C; averaged (n>3). As for the experimental part:
as §1

Experiment [1] concerns E. coli ATCC 25922. The class given is cell-based. Conditions: E. coli ATCC 25922 quality control strain; MHB II; 18 h, 37°C; averaged (n>3). As for the experimental part: as §1
The subject of experiment [2] is E. coli clinical isolates. The format is cell-based. The following applies: clinical isolates of E. coli (n=45) including MDR (ESBL, CRE); MHB II; 18 h, 37°C. As for the experimental part: as §1
For a further experiment, the system named is E. coli BW25113 ΔsbmA. The format is cell-based. Conditions: MHB II, 18 h, 37°C, averaged (n>3). As for the experimental part:
as §1

For experiment [3], the system named is E. coli ATCC 25922. The experiment in a line: In vivo efficacy, murine septicemia model. The following applies: 10 CD-1 mice, up to 3 days. As for the experimental part: CD-1 mice (7 weeks old, 27–28 g female) were used (Charles River, France). These animals were housed for a week of acclimation period before the experiment in a protected area in the ‘Centre de Zootechnie de l’Université de Bourgogne’ (Biosafety level 2 facility) and fed ad libitum according to the current recommendations by the European Institute of Health. Housing took place in rooms where a 12-h/12 h light/dark cycle is applied, the temperature ranges from 18 to 21°C and the relative humidity from 45 to 65%. The animal facility is authorized by the French authorities (Agreement N° C 21 464 04 EA). […]
For animal experiments, Bac7PS was synthesized at Genscript as acetate salt and with a purity of 92%. […] First, the maximum tolerated dose (MTD) for the peptide was determined by testing different peptide doses in 8 groups with 5 animals per group. The peptide solution was administered once by intraperitoneal (IP) injection with a volume of between 94 and 240 μl (depending on the weight of the animal and the dosage) and the animals were monitored for 2 h following the injection, then 6 to 8 h later, and then once or twice a day, depending on the clinical status, up to 5 days post-injection. […] As endpoint, the wellbeing and survival rate, on a twice daily based evaluation for up to 3 days, was monitored.

The subject of the next experiment is E. coli ribosomes. The following applies: S30 extract E. coli ATCC 25922; firefly luciferase mRNA; 800 to 0.08 μM; 1 h, 37°C; n = 9; p = 0.15, Wilcoxon, not significant.

Where no end group is shown, it is not given here.

Procedure for E. coli ribosomes: To measure inhibition of the E. coli ATCC 29522 ribosome, an S30 extract from E. coli cells was purified. E. coli ATCC 25922 was grown in 2 l of liquid LB medium at 37°C and 160 rpm. Cells were harvested in the logarithmic phase by centrifugation for 30 min at 3500 × g at 4°C. The cell pellet was washed with ice-cold S30 buffer (20 mM Tris-acetate pH 8.2, 60 mM potassium acetate, 14 mM magnesium acetate, and 3 mM β-mercaptoethanol) and pelleted again for 30 min at 3500 × g at 4°C. The resulting cell pellet was shock-frozen in liquid nitrogen and stored at −80°C until further processing. Frozen E. coli cells were thawed on ice and resuspended in four times their volume ice-cold S30 buffer. The resulting cell suspension was lysed by passing it twice through a microfluidizer processor (Microfluidics, Westwood, MA, USA) at 25,000 lb/in^2 and the cell lysate was immediately amended with DTT to a final concentration of 1 mM. The lysate was then centrifuged twice for 30 min at 30,000 × g at 4°C. After each centrifugation cycle, the clear supernatant was carefully decanted and the pellet discarded. Aliquots of S30 extract were shock-frozen in liquid nitrogen and stored at −80°C.
Sealed plates were incubated for 1 h at 37°C and stopped on ice before adding 75 μl of luciferase assay reagent (Promega) to each reaction. […]

For RRIRIRPPRLPRPRPRPYFMPRP [Bac7PS], the “reduction of the MIC vs Bac7_1-23” value in the experiment with E. coli TOP10 is given as “approximately twofold”. The minimal inhibitory concentration (MIC) worked out at 2.1 µM against E. coli TOP10 (MHB II, 18 h, 37°C, averaged (n>3), <5% of OD of growth control); 3.6 µM in the experiment on E. coli BW25113; 2.6 µM against E. coli ATCC 25922 [1]; 14.4 µM against E. coli BW25113 ΔsbmA. The MIC50 in experiment [2] turned out to be 2.9 µM. The survival was 60% in the experiment with E. coli ATCC 25922 [3] (10 mg kg^−1 IP twice (1 and 4 h post-infection)); 80% in the experiment on E. coli ATCC 25922 [3] (30 mg kg^−1 IP twice (1 and 4 h post-infection)). Further, the “mean increase of activity on E. coli ribosomes (translation inhibition IC50) compared to Bac7_1-23” value in the experiment on E. coli ribosomes was 10%.

The values are drawn from publication PMC9112550, “Optimization of the antimicrobial peptide Bac7 by deep mutational scanning” (BMC Biology, 2022).
